Source: ChEMBL document CHEMBL1938230, “6-Position optimization of tricyclic 4-quinolone-based inhibitors of glycogen synthase kinase-3β: discovery of nitrile derivatives with picomolar potency” (Bioorg Med Chem Lett, 2012)
≈ marks a conversion by molar mass, not a printed value.

Experiments:
[1] = biological target: Mitogen-activated protein kinase 7 (Homo sapiens) (UniProt Q13164); test: Inhibition of human Erk5 in HL-60 cells lysate assessed as reduction of labeling of acyl-phosphate ATP probe at 100 nM; format: cell-free
Sequence of Mitogen-activated protein kinase 7 (Homo sapiens) (Q13164 2-816 limits assumed): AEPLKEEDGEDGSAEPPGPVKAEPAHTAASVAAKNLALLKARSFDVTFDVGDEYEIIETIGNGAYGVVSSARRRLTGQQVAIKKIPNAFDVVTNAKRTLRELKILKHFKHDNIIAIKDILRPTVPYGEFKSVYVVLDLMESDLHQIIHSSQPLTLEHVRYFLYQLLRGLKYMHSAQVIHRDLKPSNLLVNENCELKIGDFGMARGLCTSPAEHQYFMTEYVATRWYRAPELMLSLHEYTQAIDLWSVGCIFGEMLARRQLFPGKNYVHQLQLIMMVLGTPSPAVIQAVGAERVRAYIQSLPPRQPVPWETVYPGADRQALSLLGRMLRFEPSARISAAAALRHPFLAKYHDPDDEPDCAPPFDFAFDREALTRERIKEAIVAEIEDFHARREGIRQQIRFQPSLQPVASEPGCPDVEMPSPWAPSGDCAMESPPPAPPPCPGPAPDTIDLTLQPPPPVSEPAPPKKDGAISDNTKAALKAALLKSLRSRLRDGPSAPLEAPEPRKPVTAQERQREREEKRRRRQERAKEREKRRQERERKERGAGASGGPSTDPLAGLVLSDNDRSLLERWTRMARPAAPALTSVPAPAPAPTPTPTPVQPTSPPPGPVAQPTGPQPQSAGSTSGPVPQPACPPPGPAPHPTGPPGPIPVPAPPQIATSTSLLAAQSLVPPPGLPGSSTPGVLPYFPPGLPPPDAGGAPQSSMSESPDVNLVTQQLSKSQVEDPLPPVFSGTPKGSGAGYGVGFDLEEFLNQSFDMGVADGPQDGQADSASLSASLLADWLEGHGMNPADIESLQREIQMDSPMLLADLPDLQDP

[2] = biological target: IKK epsilon/TBK1 (Homo sapiens) (UniProt Q14164+Q9UHD2); test: Inhibition of human IKKepsilon/TBK1 in HL-60 cells lysate assessed as reduction of labeling of acyl-phosphate ATP probe at 100 nM; format: cell-free
[3] = biological target: Serine/threonine-protein kinase 24 (Homo sapiens) (UniProt Q9Y6E0); test: Inhibition of human MST3 in HL-60 cells lysate assessed as reduction of labeling of acyl-phosphate ATP probe at 100 nM; format: cell-free
[4] = biological target: Serine/threonine-protein kinase tousled-like 2 (Homo sapiens) (UniProt Q86UE8); test: Inhibition of human TLK2 in HL-60 cells lysate assessed as reduction of labeling of acyl-phosphate ATP probe at 100 nM; format: cell-free
Sequence of Serine/threonine-protein kinase tousled-like 2 (Homo sapiens) (Q86UE8 whole entry, looked up): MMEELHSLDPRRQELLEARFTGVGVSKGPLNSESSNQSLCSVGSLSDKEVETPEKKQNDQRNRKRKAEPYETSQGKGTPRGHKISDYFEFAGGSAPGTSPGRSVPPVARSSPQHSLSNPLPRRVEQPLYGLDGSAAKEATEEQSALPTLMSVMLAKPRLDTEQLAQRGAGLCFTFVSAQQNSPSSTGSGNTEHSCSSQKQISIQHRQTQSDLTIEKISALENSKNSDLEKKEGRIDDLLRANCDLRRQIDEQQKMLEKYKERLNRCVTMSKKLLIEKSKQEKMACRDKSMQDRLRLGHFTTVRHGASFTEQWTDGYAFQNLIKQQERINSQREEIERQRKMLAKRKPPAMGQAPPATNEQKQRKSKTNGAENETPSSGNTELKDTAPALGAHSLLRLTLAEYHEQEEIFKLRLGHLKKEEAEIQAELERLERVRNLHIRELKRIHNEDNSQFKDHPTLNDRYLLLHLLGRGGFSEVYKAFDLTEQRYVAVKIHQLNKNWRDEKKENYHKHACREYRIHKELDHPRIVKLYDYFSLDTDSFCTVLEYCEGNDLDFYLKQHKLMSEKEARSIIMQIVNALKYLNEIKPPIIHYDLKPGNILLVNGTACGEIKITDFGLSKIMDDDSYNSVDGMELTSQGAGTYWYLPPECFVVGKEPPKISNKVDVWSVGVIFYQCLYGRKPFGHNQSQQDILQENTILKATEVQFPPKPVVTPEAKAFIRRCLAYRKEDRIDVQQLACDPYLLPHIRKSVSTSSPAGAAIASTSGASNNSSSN

Staphylococcus aureus = test: Antibacterial activity against Staphylococcus aureus Smith; format: ADME, organism-based
[5] = biological target: Tyrosine-protein kinase JAK1 (Homo sapiens) (UniProt P23458); test: Inhibition of human JAK1 domain1 in HL-60 cells lysate assessed as reduction of labeling of acyl-phosphate ATP probe at 100 nM; format: cell-free
Sequence of Tyrosine-protein kinase JAK1 (Homo sapiens) (P23458 whole entry, the tested form may be a part): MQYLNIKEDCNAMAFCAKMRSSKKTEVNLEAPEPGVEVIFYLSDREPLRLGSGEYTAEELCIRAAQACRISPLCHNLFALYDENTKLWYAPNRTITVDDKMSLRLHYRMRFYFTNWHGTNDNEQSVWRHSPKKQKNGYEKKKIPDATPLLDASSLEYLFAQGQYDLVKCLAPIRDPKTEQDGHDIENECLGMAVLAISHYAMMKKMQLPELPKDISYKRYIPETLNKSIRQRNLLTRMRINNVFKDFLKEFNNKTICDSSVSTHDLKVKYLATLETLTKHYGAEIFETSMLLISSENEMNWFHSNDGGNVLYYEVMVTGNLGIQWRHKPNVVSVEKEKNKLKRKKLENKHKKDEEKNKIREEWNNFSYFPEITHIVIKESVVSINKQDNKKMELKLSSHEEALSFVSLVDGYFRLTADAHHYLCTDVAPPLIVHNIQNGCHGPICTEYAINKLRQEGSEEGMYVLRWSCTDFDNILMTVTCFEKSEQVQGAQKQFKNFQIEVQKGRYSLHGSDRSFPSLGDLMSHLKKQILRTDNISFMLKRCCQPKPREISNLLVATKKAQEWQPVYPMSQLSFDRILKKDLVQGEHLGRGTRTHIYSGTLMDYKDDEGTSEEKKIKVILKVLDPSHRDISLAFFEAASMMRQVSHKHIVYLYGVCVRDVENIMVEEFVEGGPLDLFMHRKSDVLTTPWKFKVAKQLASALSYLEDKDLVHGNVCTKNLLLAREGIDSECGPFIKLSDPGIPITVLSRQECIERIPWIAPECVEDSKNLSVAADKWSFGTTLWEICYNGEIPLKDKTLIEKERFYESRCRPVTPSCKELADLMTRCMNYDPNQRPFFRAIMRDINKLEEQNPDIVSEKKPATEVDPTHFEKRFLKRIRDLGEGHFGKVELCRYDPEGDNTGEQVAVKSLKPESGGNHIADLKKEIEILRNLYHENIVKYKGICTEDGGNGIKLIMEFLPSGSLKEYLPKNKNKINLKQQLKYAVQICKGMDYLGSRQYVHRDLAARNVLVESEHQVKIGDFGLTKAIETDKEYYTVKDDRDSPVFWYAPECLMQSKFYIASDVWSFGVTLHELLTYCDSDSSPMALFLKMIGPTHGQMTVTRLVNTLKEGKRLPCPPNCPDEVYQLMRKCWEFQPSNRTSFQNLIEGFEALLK

HL-60 [6] = test: Inhibition of human FYN/SRC/YES in HL-60 cells lysate assessed as reduction of labeling of acyl-phosphate ATP probe at 100 nM
[7] = biological target: Phosphatidylinositol 4-phosphate 3-kinase C2 domain-containing subunit beta (Homo sapiens) (UniProt O00750); test: Inhibition of human PIK3C2B in HL-60 cells lysate assessed as reduction of labeling of acyl-phosphate ATP probe at 100 nM; format: cell-free
Sequence of Phosphatidylinositol 4-phosphate 3-kinase C2 domain-containing subunit beta (Homo sapiens) (O00750 whole entry, the tested form may be a part): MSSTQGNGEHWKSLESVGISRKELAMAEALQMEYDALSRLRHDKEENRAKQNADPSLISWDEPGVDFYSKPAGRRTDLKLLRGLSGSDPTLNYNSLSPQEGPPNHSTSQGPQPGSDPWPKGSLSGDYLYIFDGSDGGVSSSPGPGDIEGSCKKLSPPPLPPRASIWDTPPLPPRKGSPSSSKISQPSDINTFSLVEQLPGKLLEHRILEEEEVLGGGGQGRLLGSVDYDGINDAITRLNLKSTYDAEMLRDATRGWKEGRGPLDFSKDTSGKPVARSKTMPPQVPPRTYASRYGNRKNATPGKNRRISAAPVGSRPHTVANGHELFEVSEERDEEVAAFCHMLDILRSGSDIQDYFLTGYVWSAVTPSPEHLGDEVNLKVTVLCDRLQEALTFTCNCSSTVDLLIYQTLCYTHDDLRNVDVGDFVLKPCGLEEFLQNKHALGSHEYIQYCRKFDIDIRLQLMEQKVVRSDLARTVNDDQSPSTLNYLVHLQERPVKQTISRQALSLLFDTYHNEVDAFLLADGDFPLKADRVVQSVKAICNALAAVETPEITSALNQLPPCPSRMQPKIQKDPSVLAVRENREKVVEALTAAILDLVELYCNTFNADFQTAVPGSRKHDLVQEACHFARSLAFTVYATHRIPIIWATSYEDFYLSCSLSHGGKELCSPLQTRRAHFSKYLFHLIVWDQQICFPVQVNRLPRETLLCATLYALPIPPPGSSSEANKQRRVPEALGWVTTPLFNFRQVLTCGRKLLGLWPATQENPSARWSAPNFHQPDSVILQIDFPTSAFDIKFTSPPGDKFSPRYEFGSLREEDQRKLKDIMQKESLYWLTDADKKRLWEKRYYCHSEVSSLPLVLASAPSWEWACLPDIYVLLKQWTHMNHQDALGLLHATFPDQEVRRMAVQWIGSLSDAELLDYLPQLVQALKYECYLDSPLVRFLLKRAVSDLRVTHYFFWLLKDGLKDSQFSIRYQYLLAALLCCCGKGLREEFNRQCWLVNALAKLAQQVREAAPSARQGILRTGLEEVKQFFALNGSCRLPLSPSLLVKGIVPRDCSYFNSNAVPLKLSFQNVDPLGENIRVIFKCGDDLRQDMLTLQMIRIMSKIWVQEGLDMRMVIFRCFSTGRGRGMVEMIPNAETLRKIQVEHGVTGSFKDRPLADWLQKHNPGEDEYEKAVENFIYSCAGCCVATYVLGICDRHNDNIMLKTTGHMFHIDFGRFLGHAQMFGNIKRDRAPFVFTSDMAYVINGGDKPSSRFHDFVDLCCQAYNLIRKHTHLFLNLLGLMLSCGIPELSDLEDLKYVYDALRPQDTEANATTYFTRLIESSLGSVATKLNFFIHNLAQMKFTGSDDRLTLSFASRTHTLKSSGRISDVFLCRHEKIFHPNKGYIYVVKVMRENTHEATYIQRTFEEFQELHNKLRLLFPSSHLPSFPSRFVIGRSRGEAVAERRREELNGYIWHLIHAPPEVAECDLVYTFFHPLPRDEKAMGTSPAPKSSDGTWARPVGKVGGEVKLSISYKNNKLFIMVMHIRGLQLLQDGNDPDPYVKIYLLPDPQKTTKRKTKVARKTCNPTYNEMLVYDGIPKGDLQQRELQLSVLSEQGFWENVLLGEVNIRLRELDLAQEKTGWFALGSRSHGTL

HL-60 [8] = test: Inhibition of human MST3/MST4/YSK1 in HL-60 cells lysate assessed as reduction of labeling of acyl-phosphate ATP probe at 100 nM
[9] = biological target: T1, Inhibitor of nuclear factor kappa-B kinase subunit epsilon (Homo sapiens) (UniProt Q14164); test: Inhibition of human IKKepsilon in HL-60 cells lysate assessed as reduction of labeling of acyl-phosphate ATP probe at 100 nM; format: cell-free
T1 sequence (whole entry): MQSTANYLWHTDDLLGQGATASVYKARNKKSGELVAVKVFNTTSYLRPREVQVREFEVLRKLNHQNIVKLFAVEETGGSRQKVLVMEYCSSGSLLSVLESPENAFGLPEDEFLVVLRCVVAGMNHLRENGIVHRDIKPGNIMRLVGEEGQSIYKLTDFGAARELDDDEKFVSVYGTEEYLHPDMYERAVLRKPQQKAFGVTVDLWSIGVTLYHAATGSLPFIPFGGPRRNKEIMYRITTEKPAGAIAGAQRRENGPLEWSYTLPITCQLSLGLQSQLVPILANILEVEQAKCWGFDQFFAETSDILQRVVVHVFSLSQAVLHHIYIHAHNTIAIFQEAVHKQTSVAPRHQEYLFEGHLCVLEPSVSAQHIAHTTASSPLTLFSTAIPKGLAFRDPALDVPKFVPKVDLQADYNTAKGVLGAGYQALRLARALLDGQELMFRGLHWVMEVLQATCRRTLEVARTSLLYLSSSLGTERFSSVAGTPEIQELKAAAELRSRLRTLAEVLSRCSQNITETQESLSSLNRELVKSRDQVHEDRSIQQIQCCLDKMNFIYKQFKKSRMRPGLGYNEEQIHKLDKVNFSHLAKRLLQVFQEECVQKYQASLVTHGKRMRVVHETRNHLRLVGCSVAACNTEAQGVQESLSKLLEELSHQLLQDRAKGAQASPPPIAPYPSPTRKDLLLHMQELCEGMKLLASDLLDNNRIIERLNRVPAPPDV

[10] = biological target: Glycogen synthase kinase-3 beta (Homo sapiens, UniProt P49841); test: Inhibition of GSK3-beta
Sequence of Glycogen synthase kinase-3 beta (P49841 whole entry): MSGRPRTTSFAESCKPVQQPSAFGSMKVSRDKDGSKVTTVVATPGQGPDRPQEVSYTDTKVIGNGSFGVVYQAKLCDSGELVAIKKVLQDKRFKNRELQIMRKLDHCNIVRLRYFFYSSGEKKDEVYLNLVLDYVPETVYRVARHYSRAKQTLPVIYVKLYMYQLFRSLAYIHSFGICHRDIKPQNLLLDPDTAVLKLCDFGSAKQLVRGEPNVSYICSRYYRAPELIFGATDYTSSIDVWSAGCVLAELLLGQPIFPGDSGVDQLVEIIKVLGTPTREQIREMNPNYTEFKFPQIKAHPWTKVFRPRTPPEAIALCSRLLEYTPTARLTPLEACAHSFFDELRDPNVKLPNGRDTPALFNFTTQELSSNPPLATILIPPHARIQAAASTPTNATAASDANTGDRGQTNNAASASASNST

[11] = system: MAP4K2 (germinal center kinase) (Homo sapiens); test: Inhibition of human GCK in HL-60 cells lysate assessed as reduction of labeling of acyl-phosphate ATP probe at 100 nM

Row | SMILES | inhibition [1] | inhibition [2] | inhibition [3] | inhibition [4] | MIC (Staphylococcus aureus) | inhibition [5] | inhibition at 0.1 µM (HL-60 [6]) | inhibition [7] | inhibition at 0.1 µM (HL-60 [8]) | inhibition [9] | IC50 [10] | inhibition [11]
1 | C[C@H]1COc2c(NCCCn3cccn3)c(F)c(N)c3c(=O)c(C(=O)O)cn1c23 | < 35% | < 35% | < 35% | < 35% | 2 µM (≈ 0.803 µg/mL) | < 35% | < 35% | < 35% | < 35% | < 35% | 16 nM | –
2 | C[C@H]1COc2c(NCCCc3ccccn3)c(F)c(N)c3c(=O)c(C#N)cn1c23 | < 35% | < 35% | < 35% | < 35% | > 298 µM | < 35% | < 35% | < 35% | < 35% | < 35% | 0.6 nM | –
3 | C[C@H]1COc2c(NCCCn3cccn3)c(F)c(N)c3c(=O)c(C#N)cn1c23 | < 35% | < 35% | < 35% | < 35% | > 306 µM | < 35% | < 35% | < 35% | < 35% | < 35% | 0.86 nM | < 35%
4 | C[C@H]1COc2c(NCCCc3ccccn3)c(F)c(N)c3c(=O)c(C(=O)O)cn1c23 | < 35% | < 35% | < 35% | < 35% | 2 µM (≈ 0.825 µg/mL) | < 35% | < 35% | < 35% | < 35% | < 35% | 10 nM | < 35%
